From article PMC8843313, “Highly potent inhibitors of cathepsin K with a differently positioned cyanohydrazide warhead: structural analysis of binding mode to mature and zymogen-like enzymes” (Journal of Enzyme Inhibition and Medicinal Chemistry, 2022)

How the values were obtained:
[1] = target: T1, cathepsin K (mature, mCatK) (Homo sapiens, UniProt P43235); test: crystal structure […] Å (also with iCatK, 7QBO); Ki by slow-binding fluorogenic enzyme assay; format: biochemical; settings: read-out: mCatK inhibition^a / Ki
T1 construct: gene CTSK; mature CatK, model residues Ala1 to Met215 plus N-terminal Gly-Arg (98p–99p) (from recombinant zymogen expressed in Pichia pastoris)
T1 sequence (P43235 113-329): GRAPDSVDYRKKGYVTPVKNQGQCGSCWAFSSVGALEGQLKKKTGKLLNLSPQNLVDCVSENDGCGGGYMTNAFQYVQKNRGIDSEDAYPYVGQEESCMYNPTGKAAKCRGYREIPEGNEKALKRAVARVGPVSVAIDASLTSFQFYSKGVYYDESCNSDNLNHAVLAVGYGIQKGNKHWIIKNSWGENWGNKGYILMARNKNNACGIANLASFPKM

[2] = target: T2, cathepsin K (mature, mCatK) (Homo sapiens, UniProt P43235); test: crystal structure […] Å (also with iCatK, 7QBM); Ki by fluorogenic enzyme assay (Morrison); format: biochemical; settings: read-out: mCatK inhibition^a / Ki
T2 construct: gene CTSK; mature CatK, model residues Ala1 to Met215 (from recombinant zymogen expressed in Pichia pastoris)
T2 sequence (P43235 115-329): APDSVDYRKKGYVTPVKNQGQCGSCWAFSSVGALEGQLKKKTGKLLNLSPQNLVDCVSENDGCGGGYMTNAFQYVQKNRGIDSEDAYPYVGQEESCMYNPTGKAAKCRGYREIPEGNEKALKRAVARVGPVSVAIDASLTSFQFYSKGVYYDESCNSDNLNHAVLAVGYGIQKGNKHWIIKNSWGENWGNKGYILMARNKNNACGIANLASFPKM

| Compound | Ki [1] [nM] | Ki [2] [nM] |
| --- | --- | --- |
| CN(C#N)N(C)C(=O)[C@H](Cc1ccccc1)NC(=O)OCc1ccccc1 [Gü1303] | 0.91 | – |
| CN(Cc1ccccc1)C(=O)CN(C#N)NC(=O)OC(C)(C)C [Gü2602] | – | 0.013 |
